Assay results from PubChem BioAssay (NCI).
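Grown in 96-well plates, cells were treated for 48 hours with each compound at five concentrations. Insufficient inhibition: endpoint recorded as highest concentration tested. GI50 is the concentration that inhibits growth by half. At the TGI there is no net growth.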

What was measured:
Assay in all cases: NCI anticancer screen, dose series, 48 h
786-0 renal = test system: 786-0 renal
A498 renal = test system: A498 renal
A549 NSCLC = test system: A549 NSCLC
ACHN renal = test system: ACHN renal
BT-549 breast = test system: BT-549 breast
CAKI-1 renal = test system: CAKI-1 renal
CCRF-CEM leukemia = test system: CCRF-CEM leukemia
COLO 205 colon = test system: COLO 205 colon
DU-145 prostate = test system: DU-145 prostate
EKVX NSCLC = test system: EKVX NSCLC
HCC-2998 colon = test system: HCC-2998 colon
HCT-116 colon = test system: HCT-116 colon
HCT-15 colon = test system: HCT-15 colon
HL-60(TB) leukemia = test system: HL-60(TB) leukemia
HOP-62 NSCLC = test system: HOP-62 NSCLC
HOP-92 NSCLC = test system: HOP-92 NSCLC
HS 578T breast = test system: HS 578T breast
HT29 colon = test system: HT29 colon
IGROV1 ovarian = test system: IGROV1 ovarian
K-562 leukemia = test system: K-562 leukemia
KM12 colon = test system: KM12 colon
LOX IMVI melanoma = test system: LOX IMVI melanoma
M14 melanoma = test system: M14 melanoma
MALME-3M melanoma = test system: MALME-3M melanoma
MCF7 breast = test system: MCF7 breast
MDA-MB-231 breast = test system: MDA-MB-231 breast
MDA-MB-435 = test system: MDA-MB-435
NCI-H226 lung = test system: NCI-H226 lung
NCI-H23 lung = test system: NCI-H23 lung
NCI-H460 lung = test system: NCI-H460 lung
NCI-H522 lung = test system: NCI-H522 lung
NCI/ADR-RES ovarian = test system: NCI/ADR-RES ovarian
OVCAR-3 ovarian = test system: OVCAR-3 ovarian
OVCAR-5 ovarian = test system: OVCAR-5 ovarian
OVCAR-8 ovarian = test system: OVCAR-8 ovarian
PC-3 prostate = test system: PC-3 prostate
RPMI-8226 leukemia = test system: RPMI-8226 leukemia
RXF 393 renal = test system: RXF 393 renal
SF-268 CNS = test system: SF-268 CNS
SF-539 CNS = test system: SF-539 CNS
SK-MEL-2 melanoma = test system: SK-MEL-2 melanoma
SK-MEL-28 melanoma = test system: SK-MEL-28 melanoma
SK-MEL-5 melanoma = test system: SK-MEL-5 melanoma
SK-OV-3 ovarian = test system: SK-OV-3 ovarian
SN12C renal = test system: SN12C renal
SNB-19 CNS = test system: SNB-19 CNS
SR leukemia = test system: SR leukemia
SW-620 colon = test system: SW-620 colon
T-47D breast = test system: T-47D breast
TK-10 renal = test system: TK-10 renal
U251 CNS = test system: U251 CNS
UACC-257 melanoma = test system: UACC-257 melanoma
UACC-62 melanoma = test system: UACC-62 melanoma
UO-31 renal = test system: UO-31 renal
MOLT-4 leukemia = test system: MOLT-4 leukemia
OVCAR-4 ovarian = test system: OVCAR-4 ovarian
SF-295 CNS = test system: SF-295 CNS
SNB-75 CNS = test system: SNB-75 CNS

O=C1c2cc(Br)ccc2-c2ccc3c4ccc5c6c(ccc(c7ccc1c2c73)c64)C(=O)c1cc(Br)ccc1-5
TGI (786-0 renal): > 100000 nM
TGI (A498 renal): > 100000 nM
TGI (A549 NSCLC): > 100000 nM
TGI (ACHN renal): > 100000 nM
TGI (BT-549 breast): > 100000 nM
TGI (CAKI-1 renal): > 100000 nM
TGI (CCRF-CEM leukemia): > 100000 nM
TGI (COLO 205 colon): > 100000 nM
TGI (DU-145 prostate): > 100000 nM
TGI (EKVX NSCLC): > 100000 nM
TGI (HCC-2998 colon): > 100000 nM
TGI (HCT-116 colon): > 100000 nM
TGI (HCT-15 colon): > 100000 nM
TGI (HL-60(TB) leukemia): > 100000 nM
TGI (HOP-62 NSCLC): > 100000 nM
TGI (HOP-92 NSCLC): > 100000 nM
TGI (HS 578T breast): > 100000 nM
TGI (HT29 colon): > 100000 nM
TGI (IGROV1 ovarian): > 100000 nM
TGI (K-562 leukemia): > 100000 nM
TGI (KM12 colon): > 100000 nM
TGI (LOX IMVI melanoma): > 100000 nM
TGI (M14 melanoma): > 100000 nM
TGI (MALME-3M melanoma): > 100000 nM
TGI (MCF7 breast): > 100000 nM
TGI (MDA-MB-231 breast): > 100000 nM
TGI (MDA-MB-435): > 100000 nM
TGI (NCI-H226 lung): > 100000 nM
TGI (NCI-H23 lung): > 100000 nM
TGI (NCI-H460 lung): > 100000 nM
TGI (NCI-H522 lung): > 100000 nM
TGI (NCI/ADR-RES ovarian): > 100000 nM
TGI (OVCAR-3 ovarian): > 100000 nM
TGI (OVCAR-5 ovarian): > 100000 nM
TGI (OVCAR-8 ovarian): > 100000 nM
TGI (PC-3 prostate): > 100000 nM
TGI (RPMI-8226 leukemia): > 100000 nM
TGI (RXF 393 renal): > 100000 nM
TGI (SF-268 CNS): > 100000 nM
TGI (SF-539 CNS): > 100000 nM
TGI (SK-MEL-2 melanoma): > 100000 nM
TGI (SK-MEL-28 melanoma): > 100000 nM
TGI (SK-MEL-5 melanoma): > 100000 nM
TGI (SK-OV-3 ovarian): > 100000 nM
TGI (SN12C renal): > 100000 nM
TGI (SNB-19 CNS): > 100000 nM
TGI (SR leukemia): > 100000 nM
TGI (SW-620 colon): > 100000 nM
TGI (T-47D breast): > 100000 nM
TGI (TK-10 renal): > 100000 nM
TGI (U251 CNS): > 100000 nM
TGI (UACC-257 melanoma): > 100000 nM
TGI (UACC-62 melanoma): > 100000 nM
TGI (UO-31 renal): > 100000 nM

CCOc1ccc(N(C)c2ccc(/C=C/C3=[N+](C)c4ccccc4C3(C)C)cc2)cc1
GI50 (786-0 renal): 562 nM
TGI (786-0 renal): 1920 nM
GI50 (A498 renal): 189 nM
TGI (A498 renal): 10200 nM
GI50 (A549 NSCLC): 201 nM
TGI (A549 NSCLC): 1350 nM
GI50 (ACHN renal): 306 nM
TGI (ACHN renal): 1110 nM
GI50 (BT-549 breast): 216 nM
TGI (BT-549 breast): 1160 nM
GI50 (CAKI-1 renal): 784 nM
TGI (CAKI-1 renal): 2480 nM
GI50 (CCRF-CEM leukemia): 84.1 nM
TGI (CCRF-CEM leukemia): 647 nM
GI50 (COLO 205 colon): 211 nM
TGI (COLO 205 colon): 810 nM
GI50 (DU-145 prostate): 421 nM
TGI (DU-145 prostate): 1860 nM
GI50 (HCC-2998 colon): 391 nM
TGI (HCC-2998 colon): 1550 nM
GI50 (HCT-116 colon): 72.5 nM
TGI (HCT-116 colon): 1100 nM
GI50 (HCT-15 colon): 596 nM
TGI (HCT-15 colon): 2110 nM
GI50 (HL-60(TB) leukemia): 59 nM
TGI (HL-60(TB) leukemia): 257 nM
GI50 (HOP-62 NSCLC): 482 nM
TGI (HOP-62 NSCLC): 1910 nM
GI50 (HOP-92 NSCLC): 197 nM
TGI (HOP-92 NSCLC): 860 nM
GI50 (HS 578T breast): 314 nM
TGI (HS 578T breast): 2000 nM
GI50 (HT29 colon): 137 nM
TGI (HT29 colon): 1060 nM
GI50 (IGROV1 ovarian): 257 nM
TGI (IGROV1 ovarian): 982 nM
GI50 (K-562 leukemia): 359 nM
TGI (K-562 leukemia): 10300 nM
GI50 (KM12 colon): 219 nM
TGI (KM12 colon): 1050 nM
GI50 (LOX IMVI melanoma): 133 nM
TGI (LOX IMVI melanoma): 364 nM
GI50 (M14 melanoma): 366 nM
TGI (M14 melanoma): 1730 nM
GI50 (MALME-3M melanoma): 184 nM
TGI (MALME-3M melanoma): 848 nM
GI50 (MCF7 breast): 498 nM
TGI (MCF7 breast): 2790 nM
GI50 (MDA-MB-231 breast): 485 nM
TGI (MDA-MB-231 breast): 2220 nM
GI50 (MDA-MB-435): 231 nM
TGI (MDA-MB-435): 1320 nM
GI50 (MOLT-4 leukemia): 193 nM
TGI (MOLT-4 leukemia): 709 nM
GI50 (NCI-H226 lung): 369 nM
TGI (NCI-H226 lung): 2180 nM
GI50 (NCI-H23 lung): 125 nM
TGI (NCI-H23 lung): 1340 nM
GI50 (NCI-H460 lung): 306 nM
TGI (NCI-H460 lung): 1380 nM
GI50 (NCI-H522 lung): 167 nM
TGI (NCI-H522 lung): 780 nM
GI50 (NCI/ADR-RES ovarian): 2430 nM
TGI (NCI/ADR-RES ovarian): 16600 nM
GI50 (OVCAR-3 ovarian): 151 nM
TGI (OVCAR-3 ovarian): 1090 nM
GI50 (OVCAR-4 ovarian): 399 nM
TGI (OVCAR-4 ovarian): 2180 nM
GI50 (OVCAR-5 ovarian): 1280 nM
TGI (OVCAR-5 ovarian): 2920 nM
GI50 (OVCAR-8 ovarian): 117 nM
TGI (OVCAR-8 ovarian): 1170 nM
GI50 (PC-3 prostate): 75.9 nM
TGI (PC-3 prostate): 793 nM
GI50 (RPMI-8226 leukemia): 139 nM
TGI (RPMI-8226 leukemia): 602 nM
GI50 (RXF 393 renal): 471 nM
TGI (RXF 393 renal): 1950 nM
GI50 (SF-268 CNS): 933 nM
TGI (SF-268 CNS): 2650 nM
GI50 (SF-295 CNS): 470 nM
TGI (SF-295 CNS): 3890 nM
GI50 (SF-539 CNS): 771 nM
TGI (SF-539 CNS): 2200 nM
GI50 (SK-MEL-2 melanoma): 361 nM
TGI (SK-MEL-2 melanoma): 1250 nM
GI50 (SK-MEL-28 melanoma): 680 nM
TGI (SK-MEL-28 melanoma): 2110 nM
GI50 (SK-MEL-5 melanoma): 192 nM
TGI (SK-MEL-5 melanoma): 784 nM
GI50 (SK-OV-3 ovarian): 354 nM
TGI (SK-OV-3 ovarian): 1440 nM
GI50 (SN12C renal): 309 nM
TGI (SN12C renal): 1520 nM
GI50 (SNB-19 CNS): 367 nM
TGI (SNB-19 CNS): 1800 nM
GI50 (SNB-75 CNS): 1130 nM
TGI (SNB-75 CNS): 2760 nM
GI50 (SR leukemia): 49.9 nM
TGI (SR leukemia): 633 nM
GI50 (SW-620 colon): 175 nM
TGI (SW-620 colon): 1190 nM
GI50 (T-47D breast): 392 nM
TGI (T-47D breast): 2670 nM
GI50 (U251 CNS): 122 nM
TGI (U251 CNS): 1170 nM
GI50 (UACC-257 melanoma): 188 nM
TGI (UACC-257 melanoma): 861 nM
GI50 (UACC-62 melanoma): 444 nM
TGI (UACC-62 melanoma): 2160 nM
GI50 (UO-31 renal): 449 nM
TGI (UO-31 renal): 1790 nM
